Assays:
anti-T4 Fab = assay: competitive ELISA, T4-BSA coated wells, 0.25 nM anti-T4 Fab pre-incubated with analyte; type: binding, mouse; conditions: for IC50: by ELISA assay, read-out: relative IC50
Protocol: Microtiter plate wells (Nunc, 436023) were coated with 100 μl of 4 μg/ml T4-BSA (Fitzgerald, 80-IT50) in PBS (15 mM phosphate, 150 mM NaCl, pH 7.3) for one hour at +37° C. with 600 rpm shaking. Wells were then washed three times with 300 μl PBS supplemented with 0.05% (v/v) Tween20 (Sigma-Aldrich, 93773-250G). Wells were blocked with 200 μl of Superblock® (Thermo Fisher Scientific, 37516) for 30 minutes in room temperature with 600 rpm shaking and washed as above. 100 μl of pre-incubated mixtures, containing 0.25 nM anti-T4 Fab and varying concentrations of L-thyroxine (T4) (Sigma-Aldrich, T2376) in PBSP (GE Healthcare, 28-9950-84) supplemented with 1% DMSO (v/v) (Sigma-Aldrich, D5879-100ML), were transferred to wells and incubated for 30 minutes with 600 rpm shaking in room temperature. Each sample had 12 replicates. Wells were washed as above and 100 μl of Goat anti-mouse Kappa-HRP (SoutherBiotech, 1050-05) diluted 1:1000 in Superblock was transferred to wells and incubation was carried out for 30 minutes at 600 rpm shaking in room temperature. Wells were washed as above and 100 μl of TMB Microwell Peroxidase Substrate System (2-C) (SeraCare, 50-76-00) was transferred to wells and enzymatic reaction was carried out for 30 minutes with 600 rpm shaking in room temperature. Reactions were stopped by transferring 100 μl of 1 M H3PO4 to the wells and measured at A450 using Varioskan (Thermo Fisher Scientific). Data was analysed with OriginPro 2017-software.
Assay was performed as in the previous paragraph (under title L-Thyroxine) except instead of T4 (Thyroxine) TIBPA (Tetraiodobisphenol A) was used.
Assay was performed as in the paragraph under title L-Thyroxine except instead of T4 (Thyroxine) TBBPA (Tetrabromobisphenol A) was used.
Assay was performed as in the paragraph under title L-Thyroxine except instead of T4 (Thyroxine) TCBPA (Tetrachlorobisphenol A) was used.
Assay was performed as in the paragraph under title L-Thyroxine except instead of T4 (Thyroxine) BPA (Bisphenol A) was used.

anti-T4 Fab fragment = assay: SPR (BIAcore T200) inhibition assay, immobilized T4-AP, affinity and specificity determination; type: binding, mouse; conditions: 2 nM anti-T4 Fab preincubated with analyte, T4-AP on CM5 chip, 2% DMSO-PBSP, triplicates
Protocol: T4-alkaline phosphatase was immobilized to the sensor surface and Kd values were determined by inhibition assay method.
T4-AP and AP (P5931, Sigma-Aldrich, St. Louis, Mo., USA), were diluted to 100 μg/mL concentration in 10 mM sodium acetate pH 4.0 (BR100351, GE Healthcare, Piscataway, N.J., USA). T4-AP and AP were immobilized to preconditioned CM5 chip using EDC/NHS—chemistry following manufacturer's instructions. Concentration of anti-T4 Fab fragment was calculated using theoretical extinction coefficient (ExPASy ProtParam tool, web.expasy.org/protparam) of the anti-T4 Fab fragment and by measuring the A280 with NanoDrop 2000c instrument (Thermo Disher Scientific, Waltham, Mass., USA). […] Flowrate was set to 30 μl/min in all cycle steps.
Preincubated mixtures were injected over the sensor chip surface for seven minutes and dissociated for 30 seconds. […] Data collection point was set to be 10 seconds after the start of dissociation phase. All sample series were run as triplicates, where a single sample series consisted from growing small molecule concentration in the preincubation mixture. Data was reference and blank subtracted. In addition, small differences in DMSO between the samples were compensated using DMSO solvent correction series, as recommended by instrument manufacturer GE Healthcare). Concentrations of free anti-T4 Fab fragments remaining in the preincubated mixtures were calculated by comparing the obtained responses against standard curve of anti-T4 Fab fragment. Affinity constants were calculated using BIAcore T200 Evaluation Software (GE Healthcare, Piscataway, N.J., USA) applying four-parameter logistic function. (See FIGS. 4A and B and Table 1.)

Row | Compound | competition in competitive ELISA assay (anti-T4 Fab; high concentration (5 μM)) | KD, anti-T4 Fab (anti-T4 Fab fragment) | IC50 (anti-T4 Fab) [nM] | Kd (anti-T4 Fab fragment) [nM]
1 | CC(C)(c1ccc(O)cc1)c1ccc(O)cc1 [BPA, Bisphenol A] | No competition was observed | no binding |  | 
2 | CC(C)(c1cc(Br)c(O)c(Br)c1)c1cc(Br)c(O)c(Br)c1 [TBBPA, Tetrabromobisphenol A] |  |  | 74 | 69.2
3 | N[C@@H](Cc1ccc(Oc2ccc(O)cc2)cc1)C(=O)O [Compound T0] |  | no binding |  | 
4 | CC(C)(c1cc(I)c(O)c(I)c1)c1cc(I)c(O)c(I)c1 [TIBPA, Tetraiodobisphenol A] |  |  | 54 | 37.3
5 | N[C@@H](Cc1cc(I)c(Oc2cc(I)c(O)c(I)c2)c(I)c1)C(=O)O [Compound T4, 3,5,3′,5′-tetraiodothyronine] |  |  | 0.54 | 0.53
6 | CC(C)(c1cc(Cl)c(O)c(Cl)c1)c1cc(Cl)c(O)c(Cl)c1 [TCBPA, Tetrachlorobisphenol A] |  |  | 544 | 558
